Several values for one entry are separate records, joined by “and”; a condition that tells them apart may be missing. Identical values can stand only once.
Experiments:
MxA protein = MxA protein induction in dendritic cells (Western blot); type: cell-based, human; conditions: 1 μg/ml; after 24 hr and 48 hours; FIGS. 77, 78
Protocol: The ability of products of the invention to induce production of antiviral MxA protein by predendritic cells has been assessed. MxA production by cells was measured after an SDS-PAGE electrophoretic separation by a Western Blot assay
Extraction and analysis of protein was conducted as follows: cells were harvested, then washed 3 times with PBS (phosphate buffered saline) and lyzed with a 100 Mm Tris-HCl buffer, 150 mM NaCl, 5 mM EDTA, 1% Triton-100 containing 1 mM PMSF (phenylmethylsulphonyl fluoride) and 1 μ/ml of pepstatin as protease inhibitors. Lysis was carried out at a density of 10^6 cells for 100 μl of (5×) buffer containing 60 mM Tris-HCl (pH 6.8), 10% glycerol, 2% SDS, 14.4 mM 2-mercaptoethanol and 0.1% bromophenol). Samples were heated up to 95° C. for 5 min. in sealed Eppendorf tubes. Electrophoresis was performed on a 10 cm×10 cm 12% acrylamide minigel by running a sample having the same number of cells. Migration was effected with the following buffer: 25 mM Tris, 192 mM glycine, 0.1% SDS, pH 8.3. […]
Non specific bonding sites on the membrane were blocked with 5% skimmed milk in TBS (10 mM Tris-HCl, 150 Mm NaCl, pH 7.4) and allowing to stand for 1 hour at room temperature. […] In this system, HRP catalyzes a luminol-mediated chemiluminescent reaction which can be detected on a photographic film. […]

K562 cells = experiment: activation of NK cell cytotoxicity against K562 target cells (LDH release); type: cell-based, human
Protocol: PBMC were recovered from buffy coats according to the procedure previously described in example 4.6. […] Cells were incubated under such conditions for 24 hours. K562 cells (human leukemia cell line, ATCC #CCL 243, 20110-2209 Manassas (Va.), U.S.A.) were maintained in culture using RPMI medium containing 10% FCS and subjected to 2 passages per week.
In order to make cytotoxicity measurement, PBMC and K562 cells were washed twice in HBSS and resuspended in Phenol Red-free RPMI medium containing 5% FCS. PBMC were divided into a round bottom 96-well plate so as to achieve a PBMC/target ratio of 20/1, 10/1 and 5/1 in 50 μl volume. 5000 K562 cells (target) were added in each well using 50 μl of Phenol Red-free RPMI. Final volume was 100 μl. The plate was centrifuged to promote contact then incubated at 37° C. for 4 hours.
Cytotoxicity was assayed using a non radioactive CytoTox 96 kit based on measuring LDH release during cell lysis (kit #G1780, batch #124100, Promega, Madison, Wis.) according to the supplier's instructions.
The percentage of cytotoxicity was calculated according to the following equation: […]

[1] = pyrogenicity in the rabbit model; type: in vivo, New Zealand white rabbits; conditions: for response in ° C. average (individual values): 3 rabbits
Protocol: 15 New Zealand white rabbits are divided into the following groups: • Group 1: 1.0 mg/kg • Group 2: 0.1 mg/kg • Group 3: 0.01 mg/kg • Group 4: 0.001 mg/kg • Group 5: water for injection
On the day of testing, rabbits are tightly held and weighed in boxes designed for this purpose. Temperature probes are inserted in the rectum are
1 hour after probe insertion, temperatures (preinjection) are recorded for 90 minutes and the mean value is calculated.
Each rabbit is then administered an i.v. injection of product or control (sterile water in 0.9% NaCl) via the marginal (lateral) ear vein. Temperature is measured at 30 minute intervals for 3 hours. Difference between the preinjection average temperature and maximum temperature is calculated and reported.
If the result obtained lies in-between, the test is repeated with 3 more rabbits.

| SMILES | production of MxA protein (MxA protein) | NK activity level (K562 cells; 1 μg/ml) | % cytotoxicity (K562 cells; Ratio PBMC:K562 5.1) [%] | Optical density at 490 nm, K562 + PBMC (K562 cells; Ratio PBMC:K562 5.1) | Optical density at 490 nm, PBMC alone (K562 cells; Ratio PBMC:K562 5.1) | % cytotoxicity (K562 cells; Ratio PBMC:K562 10.1) [%] | Optical density at 490 nm, K562 + PBMC (K562 cells; Ratio PBMC:K562 10.1) | Optical density at 490 nm, PBMC alone (K562 cells; Ratio PBMC:K562 10.1) | % cytotoxicity (K562 cells; Ratio PBMC:K562 20.1) [%] | Optical density at 490 nm, K562 + PBMC (K562 cells; Ratio PBMC:K562 20.1) | Optical density at 490 nm, PBMC alone (K562 cells; Ratio PBMC:K562 20.1, stimulus 24 hours) | pyrogenicity Results ([1]; 0.001 mg/Kg i.v.) | response in ° C. average (individual values) ([1]; 0.001 mg/Kg i.v.) | pyrogenicity Results ([1]; 0.01 mg/Kg i.v.) | response in ° C. average (individual values) ([1]; 0.01 mg/Kg i.v.) | pyrogenicity Results ([1]; 0.1 mg/Kg i.v.) | response in ° C. average (individual values) ([1]; 0.1 mg/Kg i.v.) | pyrogenicity Results ([1]; 1 mg/Kg i.v.) | response in ° C. average (individual values) ([1]; 1 mg/Kg i.v.) |
| --- | --- | --- | --- | --- | --- | --- | --- | --- | --- | --- | --- | --- | --- | --- | --- | --- | --- | --- | --- |
| CCCCCCCCCCCC(=O)O[C@H](CCCCCCCCCCC)CC(=O)NC(CCOP(=O)(O)O)C(=O)NCCCC(COC(=O)CCCCC(O)CO)NC(=O)C[C@H](O)CCCCCCCCCCC (stereo partly drawn) [OM-197-FV6, 3-[(R)-dodecanoyloxytetradecanoylamino]-4oxo-5-aza-9-[(R)-3-hydroxytetradecanoylamino]-decan-1,10-diol 1-dihydrogenphate 10-(6,7-dihydroxyheptanoate)] | significant rise | comparable or slightly inferior to that induced by LPS | 0 | 1.4 | 0.079 | 12.9 | 1.65 | 0.087 | 38.8 | 2.1 | 0.11 | – | – | – | – | – | – | – | – |
| CCCCCCCCCCCC(=O)O[C@H](CCCCCCCCCCC)CC(=O)N[C@H](CC(=O)O)C(=O)NCCC[C@H](COP(=O)(O)O)NC(=O)C[C@H](O)CCCCCCCCCCC [OM-197-MC-MP, N—[(R)-3-dodecanoyloxytetradecanoyl]-D-aspartic acid, α-N-{(4R)-5-dihydroxyphosphoryloxy-4-[(R)-3-hydroxytetradecanoyl-amino]pentyl}amide] | – | – | – | – | – | – | – | – | – | – | – | non pyrogenic | 0.35 (0.10, 0.05, 0.20) ° C. and 0.25 (0.00, 0.10, 0.15) ° C. | non pyrogenic | 0.65 (0.00, 0.45, 0.20) ° C. and 0.35 (0.20, 0.15, 0.00) ° C. | pyrogenic | 2.00 (1.45, 0.05, 0.50) ° C. and 2.85 (1.10, 1.20, 0.55) ° C. | pyrogenic | 3.40 (1.50, 0.60, 1.30) ° C. and 3.25 (1.25, 1.45, 0.55) ° C. |
